“And” between values parts separate entries of the source, which are not always exact repeats. Identical values can stand only once. Like-named read-outs stand apart in the source and are kept apart here. Values belong to the molecule of their own block, whether it stands above or below them.
Columns and labels:
[1] = Isothermal titration calorimetry of biotin binding; details: for ΔCp: Table 1a, CP51/46 in PB; for ΔCp observed: change in heat capacity of biotin association, linear fit of ΔH° versus temperature
Method: Isothermal titration calorimetry (ITC) experiments on wild-type streptavidin were performed on a MicroCal Omega instrument. ITC experiments on CP51/46 were done using a Calorimetry Science Corporation 4200 Calorimeter (Provo, Utah). CP51/46 solutions of 30-40 μM concentration were titrated by the addition of 20×5μL aliquots of 750 μM biotin dissolved in the same buffer as the protein. All ITC experiments were done in either phosphate (50 mM sodium phosphate, 100 mM NaCl, pH 7.75) or Tris (50 mM Tris HCl, 100 mM NaCl, pH 7.75) buffers. Biotin concentrations were determined gravimetrically. Data were analyzed using the proprietary software supplied by Calorimetry Science Corporation with the instrument. Heats of dilution for each injection were subtracted from the reaction heats before data analysis. Nonlinear fitting of the data allowed the number of binding sites (n), association constant (Ka), and binding enthalpy (ΔH°) to be determined assuming noncooperative binding and one site per subunit.

[2] = wild-type, cited from earlier work; for Ka: biotin association, estimated (Green 1990); for ΔH°: 25° C. (Chilkoti 1995)
[3] = Tris buffer, per mol of subunits
[4] = phosphate buffer (PB), 25° C., per mol of subunits

- ΔCp ([1]; per mol of subunits): -345 ± 12 cal/mol·°C
- ΔCp observed [1]: −345 cal/mol° C.
- TΔS° ([1]; wild-type, 25° C., from estimated Ka and Gibb's free energy): -6.6 ± 0.4 kcal/mol
- TΔS° ([1]; wild-type, 25° C., from estimated Ka and Gibb's free energy, listed as wild-type streptavidin): -6.6 kcal/mol
- ΔG° ([1]; wild-type, from estimated Ka, per mol of subunits): -18 kcal/mol
Molecule: wild-type: Wild-type core streptavidin (SEQ ID NO:1), comparator for biotin binding [reference compound]
- Ka [2]: 2.5e+13 M⁻¹
- Ka ([2]; listed as Wild-type streptavidin): ~2.5e+13 M⁻¹
- Ka ([2]; listed as streptavidin): approximately 2.5×10^13 M^−1
- ΔH° [2]: -24.9 ± 0.4 kcal/mol
- ΔH° ([2]; listed as wild type streptavidin): -24.9 kcal/mol

- ΔCp ([1]; per mol of subunits): -95 ± 29 cal/mol·°C
- TΔS° [1, 3]: -3.3 ± 0.7 kcal/mol
- ΔG° [1, 3]: -10.1 kcal/mol
- ΔH° [1, 3]: -13.4 ± 0.7 kcal/mol
- Ka ([1]; biotin association, Tris buffer pH 7.75, per mol of subunits): (2.47 ± 1.87) × 10^7 M^−1
- ΔCp observed [1]: −95 cal/mol° C.
- ΔG° [1, 4]: -10.0 kcal/mol
B1: CP51/46: Circularly permuted core streptavidin; termini 13 and 139 joined by GGGS linker, loop residues 47-50 removed, new termini Glu51 and Ala46 (SEQ ID NO:4) (protein)
chain: MESRYVLTGRYDSAPATDGSGTALGWTVAWKNNYRNAHSATTWSGQYVGGAEARINTQWLLTSGTTEANAWKSTLVEHDTFTKVKPSAASGGGSAEAGITGTWYNQLGSTFIVTAGADGALTGTYESA
- TΔS° [1, 4]: −3.8 (±0.8) kcal/mol and −3.8 ± 0.8 kcal/mol
- ΔH° [1, 4]: −13.8 (±0.8) kcal/mol and −13.8 ± 0.8 kcal/mol
